Series [1] has as its system HCT-116. As to the kind of experiment: cells. The class given is functional. The settings on record: Homo sapiens, time 72 hrs, read-out: GI.
In series [2] the test system is NCI-H460. As to the kind of experiment: cells. The following applies: Homo sapiens, time 72 hrs, read-out: GI. The class given is functional.
Series [3] has as its system HCT-116. The series can be described thus: cells. Type of series: functional, cell-based. The following applies: Homo sapiens, HCT-116, 72 h.
Description: Antiproliferative activity against human HCT116 cells assessed as inhibition of cell growth incubated for 72 hrs by CCK-8 assay
The test system of series [4] is A-375. As to the kind of experiment: cells. Type of series: functional, cell-based. The following applies: Homo sapiens, A-375, 72 h.
Description: Antiproliferative activity against human A375 cells assessed as inhibition of cell growth incubated for 72 hrs by CCK-8 assay
Series [5] relates to HeLa. As to the kind of experiment: cells. The settings on record: Homo sapiens, 72 h. Type of series: functional, cell-based.
Description: Antiproliferative activity against human Hela cells assessed as inhibition of cell growth incubated for 72 hrs by CCK-8 assay
The target of series [6] is CDK6/cyclin D3 (Homo sapiens, UniProt Q00534). As to the kind of experiment: Inhibition of recombinant human full length CDK6/cyclin D3 incubated for 10 mins by ADP-Glo reagent assay. Type of series: protein-complex assay. Background: ADP-Glo turns the ADP formed in a reaction into a luminescent signal.
The test system of series [7] is A-375. The series can be described thus: Antimigratory activity against human A375 cells assessed as inhibition of cell migration at 0.25 uM measured after 48 hrs by cell scratch assay. Type of series: functional, cell-based.
Series [8] has as its system NCI-H460. The series can be described thus: Antimigratory activity against human H460 cells assessed as inhibition of cell migration at 0.5 uM measured after 48 hrs by cell scratch assay. The class given is functional, cell-based.
Series [9] deals with HCT-116. The series can be described thus: Cell cycle arrest in human HCT116 cells assessed as increase in number of cells at G2/M phase at 0.5 to 2 uM incubated for 24 hrs by propidium iodide staining based flow cytometry. The class given is functional. The settings on record: dose 0.5-2 µM. In general terms: In flow cytometry, cells or beads pass a laser one at a time.
In series [10] the test system is HeLa. The series can be described thus: Cell cycle arrest in human HeLa cells assessed as increase in number of cells at G2/M phase at 0.5 to 2 uM incubated for 24 hrs by propidium iodide staining based flow cytometry. The class given is functional. The settings on record: dose 0.5-2 µM.
Series [11] concerns NCI-H460. The series can be described thus: Induction of apoptosis in human H460 cells assessed as number of apoptotic cells at 0.5 to 2 uM incubated for 48 hrs by annexin V-FITC/PI based flow cytometric analysis. The class given is functional, cell-based. The following applies: dose 0.5-2 µM.
In series [12] the test system is HeLa. The series can be described thus: Induction of apoptosis in human HeLa cells assessed as number of apoptotic cells at 0.5 to 2 uM incubated for 48 hrs by annexin V-FITC/PI based flow cytometric analysis. The settings on record: dose 0.5-2 µM. The class given is functional, cell-based.
Series [13] deals with Cyclin-dependent kinase 2 (Homo sapiens) (UniProt P24941). The series can be described thus: Inhibition of CDK2 in human A375 cells at 1 uM measured after 12 hr by DAPI staining based immunofluorescence analysis. Type of series: cell-based. The settings on record: A-375.
Series [14] can be described thus: Half life in ICR mouse at 20 mg/kg, ip by LC-MS/MS analysis. The class given is ADME, organism-based. The settings on record: in vivo.
Series [15] in a line: Tmax in ICR mouse at 20 mg/kg, ip by LC-MS/MS analysis. Type of series: ADME, organism-based. The settings on record: in vivo.
Series [16] in a line: Cmax in ICR mouse at 20 mg/kg, ip by LC-MS/MS analysis. The class given is ADME, organism-based. The arrangement: route intraperitoneal, dose 20 mg/kg. The following applies: in vivo.
Series [17] is described as follows: AUC (0 to infinity) in ICR mouse at 20 mg/kg, ip by LC-MS/MS analysis. The class given is ADME, organism-based. The settings on record: in vivo. The arrangement: time infinity, route intraperitoneal, dose 20 mg/kg.
Series [18] can be described thus: MRT (0 to infinity) in ICR mouse at 20 mg/kg, ip by LC-MS/MS analysis. Type of series: ADME, organism-based. The settings on record: in vivo.
Series [19] is described as follows: Biovailability in ICR mouse at 20 mg/kg, ip. The settings on record: in vivo. Type of series: ADME, organism-based.
The test system of series [20] is NCI-H460. The series can be described thus: cells. Type of series: functional. The settings on record: Homo sapiens, time 72 hrs, read-out: GI. This is another data set of the same source.
Series [21] addresses Histone deacetylase (Homo sapiens) (UniProt Q13547+O15379+Q9UBN7+Q92769+Q9UQL6+Q8WUI4+Q9BY41+Q96DB2+P56524+Q9UKV0+Q969S8). As to the kind of experiment: Inhibition of HDAC in human A375 cells assessed as increase in acetylation of H3K9 at 1 uM measured after 12 hr by DAPI staining based immunofluorescence analysis. The class given is cell-based. The following applies: A-375.

Series [22] concerns A-375. As to the kind of experiment: Induction of ROS generation in human A375 cells at 1 uM measured after 24 hrs by fluorescence microscopic analysis.
The nature of series [23]: Toxicity in BALB/C nude mouse xenografted with HCT116 cells assessed as effect on body weight at 12.5 to 25 mg/kg, ip once daily for 21 days. The class given is organism-based. The following applies: in vivo, 504 h, dose 12.5-25 mg/kg, time 21 day.
For series [24], the system named is HCT-116. As to the kind of experiment: Antitumor activity against human HCT116 cells xenografted in BALB/C nude mouse assessed reduction in tumor growth at 12.5 mg/kg, ip once daily for 21 days relative to control. The class given is functional. The settings on record: HCT-116, ip, 504 h, time 21 day, read-out: TGI. In general terms: Xenograft models place foreign cells or tissue in a host animal.

Series [25] relates to HCT-116. As to the kind of experiment: Antitumor activity against human HCT116 cells xenografted in BALB/C nude mouse assessed reduction in tumor growth at 25 mg/kg, ip once daily for 21 days relative to control. The settings on record: HCT-116, ip, 504 h, time 21 day, read-out: TGI. The class given is functional.

Calls of active or inactive are those of the source. No cut-off for these calls is given here.

Usually IC50 stands for the midpoint of a concentration-inhibition curve. The Tmax is the time at which the peak concentration occurs. For orientation: Cmax means the highest concentration seen after dosing. Usually AUC stands for concentration integrated over time. Lower therefore signals less exposure. As usually defined, the MRT inf is the average time that molecules of a dose stay in the body. By bioavailability is commonly meant the share of a dose that reaches the circulation, judged against a reference dose that is usually intravenous.

CDK6/cyclin D3, sequence (P30281 whole entry): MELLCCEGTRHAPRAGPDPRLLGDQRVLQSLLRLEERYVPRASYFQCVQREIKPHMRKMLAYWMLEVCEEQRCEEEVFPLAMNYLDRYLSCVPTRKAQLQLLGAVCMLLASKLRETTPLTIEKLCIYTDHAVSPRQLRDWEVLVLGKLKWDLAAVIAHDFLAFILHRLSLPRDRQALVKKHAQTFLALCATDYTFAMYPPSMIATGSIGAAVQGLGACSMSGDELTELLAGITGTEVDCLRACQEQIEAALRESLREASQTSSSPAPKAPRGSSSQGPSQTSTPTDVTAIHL
CDK6/cyclin D3, sequence (Q00534 whole entry): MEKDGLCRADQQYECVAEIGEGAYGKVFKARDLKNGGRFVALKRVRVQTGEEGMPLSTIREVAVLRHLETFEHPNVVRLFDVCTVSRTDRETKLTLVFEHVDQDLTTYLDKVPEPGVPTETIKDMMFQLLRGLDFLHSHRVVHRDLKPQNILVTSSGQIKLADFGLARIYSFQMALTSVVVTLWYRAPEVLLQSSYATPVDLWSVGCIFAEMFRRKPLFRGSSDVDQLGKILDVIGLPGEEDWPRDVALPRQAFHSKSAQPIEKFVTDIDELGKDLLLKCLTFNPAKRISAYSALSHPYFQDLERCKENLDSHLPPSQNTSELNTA

With `Nc1ccccc1NC(=O)Cc1ccc(NC(=O)c2n[nH]cc2NC(=O)c2c(Cl)cccc2Cl)cc1`, the inhibition of growth at 8 µM in [1] came out at 78%; in series [2], 67.4%. Besides, the IC50 in [3] was 1450 nM; in series [4], 1600 nM; in series [5], 3150 nM; in series [6], above 1000 nM. For the same compound, the inhibition result in series [7], in series [8], in [13] and in series [21] was “Active” each time. Moreover, the result in series [9], in series [10], in [11], in series [12] and in series [22] was Active. The t1/2 in series [14] was 1.63 h. In series [15], the Tmax came to 1 h. The compound also yielded a Cmax in series [16] of 2170 ng/mL. The AUC in series [17] is 7200 ng·h/mL. In series [18], the MRT inf is 2.36 h. This compound had a bioavailability in series [19] of 27.8%. Also, the inhibition of growth at 2 µM in [20] was 57.3%.

As for `Nc1ccccc1NC(=O)c1ccc(CNC(=O)c2n[nH]cc2NC(=O)c2c(Cl)cccc2Cl)cc1`, the inhibition of growth at 8 µM in series [1] worked out at 73.8%; in series [2], 78.3%. Moreover, the IC50 is 710 nM in series [3], 1200 nM in [4], 1830 nM in series [5] and above 1000 nM in series [6]. For the same compound, the inhibition entry in [7], in series [8], in [13] and in series [21] was “Active” in each case. The outcome in series [9], in series [10], in [11], in [12] and in [22] was Active. In addition, the t1/2 in series [14] was 2.61 h. Moreover, the Tmax in series [15] came to 2 h. The highest concentration (Cmax) in [16] worked out at 7570 ng/mL. This compound also returned an AUC in series [17] of 30700 ng·h/mL. The compound further displayed a mean residence time MRT inf in [18] of 3.31 h. In [19], this compound registered a bioavailability of 63.6%. The Activity entry in series [23] was “Non-Toxic”. Moreover, in series [24], the inhibition in vivo at 12.5 mg/kg worked out at 37%. The inhibition of growth at 2 µM in [20] is 32.8%. Further, in series [25], the inhibition in vivo at 25 mg/kg was 51%.

Source of the values: ChEMBL document CHEMBL4680185, “Discovery of novel cyclin-dependent kinase (CDK) and histone deacetylase (HDAC) dual inhibitors with potent in vitro and in vivo anticancer activity” (Eur J Med Chem, 2020).
